Laboratory results taken from USRE48097E1, “Cephem compounds, their production and use” (priority 2015, dated 2020).
In brackets after ≈: the same amount, converted by molar mass. Where two headings read alike, the source gives them in different places.

Key:
[1] = system: S. aureus 3132; assay: MIC against S. aureus 3132; format: cell-based; conditions: Table 2, S. aureus 3132, MSSA
Text: (§1) Without limitation, the present cephem compounds alone, or in combination with one or more β-lactamase inhibitors, may provide improved antibacterial efficacy, particularly in antibiotic-resistant bacterial strains. It is believed that the present compounds may be structurally different from known compounds and, as a result, may be more basic in nature. It is an advantage that the present compounds may extend the spectrum of effective bacterial compounds, particularly against previously-resistant bacteria (e.g. ESKAPE organisms), and/or gram negative bacteria, without significant side effects. In a preferred embodiment, the present cephem compound may comprise reference compound ceftazidime, which may be used alone, or in combination with one or more β-lactamase inhibitors, such as NXL-104. As shown, the foregoing composition was tested for minimum inhibitory concentration (MIC, μg/mL) against bacteria listed in Tables 2-3.

[2] = system: S. aureus 3144; assay: MIC against S. aureus 3144; format: cell-based; conditions: Table 2, S. aureus 3144, MSSA
Text: as §1

[3] = system: S. pneumoniae 2407; assay: MIC against S. pneumoniae 2407; format: cell-based; conditions: Table 2, S. pneumoniae 2407, Pen S
Text: as §1

[4] = system: E. cloacae596; assay: MIC against E. cloacae596; format: cell-based, E. cloacae; conditions: Table 2, E. cloacae596, Caz R, IMP S
Text: as §1

[5] = system: E. cloacae 2044; assay: MIC against E. cloacae 2044; format: cell-based; conditions: Table 2, E. cloacae 2044, Caz S, IMP S
Text: as §1

[6] = system: C. freundii 580; assay: MIC against C. freundii 580; format: cell-based; conditions: Table 2, C. freundii 580, Caz R, IMP S
Text: as §1

[7] = system: C. freundii 2003; assay: MIC against C. freundii 2003; format: cell-based; conditions: Table 2, C. freundii 2003, Caz R, IMP S
Text: as §1

[8] = system: C. freundii 2487; assay: MIC against C. freundii 2487; format: cell-based; conditions: Table 2, C. freundii 2487, Caz R, IMP S
Text: as §1

[9] = system: E. coli 4101; assay: MIC against E. coli 4101; format: cell-based; conditions: Table 2, E. coli 4101, CTX-M-14, TEM-1
Text: as §1

[10] = system: K. baumanii 4094; assay: MIC against K. baumanii 4094; format: cell-based; conditions: Table 2, K. baumanii 4094, OXA-51
Text: as §1

[11] = system: K. pneumoniae 2690; assay: MIC against K. pneumoniae 2690; format: cell-based; conditions: Table 3, K. pneumoniae 2690, KPC-2
Method: (§2) As shown, the foregoing composition was tested for minimum inhibitory concentration (MIC, μg/mL) against bacteria listed in Tables 2-3.

[12] = system: K. pneumoniae 2711; assay: MIC against K. pneumoniae 2711; format: cell-based; conditions: Table 3, K. pneumoniae 2711, KPC-3, VIM-1
Method: as §2

[13] = system: K. pneumoniae 2712; assay: MIC against K. pneumoniae 2712; format: cell-based; conditions: Table 3, K. pneumoniae 2712, KPC-3, VIM-1
Method: as §2

[14] = system: K. pneumoniae 2713; assay: MIC against K. pneumoniae 2713; format: cell-based; conditions: Table 3, K. pneumoniae 2713, KPC-3, VIM-1
Method: as §2

[15] = system: P. aeruginosa 2686; assay: MIC against P. aeruginosa 2686; format: cell-based; conditions: Table 3, P. aeruginosa 2686, KPC-2
Method: as §2

[16] = Staphylococcus aureus, alone, read-out: MIC
[17] = Streptococcus pneumoniae, alone, read-out: MIC
[18] = Enterobacter cloacae, alone, read-out: MIC
[19] = Citrobacter freundii, alone, read-out: MIC
[20] = Escherichia coli, alone, read-out: MIC
[21] = Klebsiella pneumoniae, alone, read-out: MIC
[22] = Pseudomonas aeruginosa, alone, read-out: MIC

| SMILES | MIC ([1]; in combination with NXL-104) [µg/mL] | MIC ([2]; in combination with NXL-104) [µg/mL] | MIC ([3]; in combination with NXL-104) [µg/mL] | MIC ([4]; in combination with NXL-104) [µg/mL] | MIC ([5]; in combination with NXL-104) [µg/mL] | MIC ([6]; in combination with NXL-104) [µg/mL] | MIC ([7]; in combination with NXL-104) [µg/mL] | MIC ([8]; in combination with NXL-104) [µg/mL] | MIC ([9]; in combination with NXL-104) [µg/mL] | MIC ([10]; in combination with NXL-104) [µg/mL] | MIC ([11]; in combination with NXL-104) | MIC ([12]; in combination with NXL-104) [µg/mL] | MIC ([13]; in combination with NXL-104) [µg/mL] | MIC ([14]; in combination with NXL-104) [µg/mL] | MIC ([15]; in combination with NXL-104) [µg/mL] | MIC [2, 16] [µg/mL] | MIC [3, 17] [µg/mL] | MIC [4, 18] [µg/mL] | MIC [5, 18] [µg/mL] | MIC [6, 19] [µg/mL] | also measured |
| --- | --- | --- | --- | --- | --- | --- | --- | --- | --- | --- | --- | --- | --- | --- | --- | --- | --- | --- | --- | --- | --- |
| CC(C)(O/N=C(\C(=O)N[C@@H]1C(=O)N2C(C(=O)[O-])=C(C[n+]3ccccc3)CS[C@H]12)c1csc(N)n1)C(=O)O [CAZ, ceftazidime, reference compound] | 8.00 | 16.00 | 32.00 | 1.00 | 0.25 | 2.00 | 1.00 | 8.00 | 0.25 | 32.00 | 4 µg/mL | 2 | 16 | 8 | 16 | – | – | – | – | – | MIC ([1]; alone): 8.00 µg/mL; MIC ([2]; alone): 16.00 µg/mL; MIC ([3]; alone): 4.00 µg/mL; MIC ([4]; alone): 4.00 µg/mL; MIC ([5]; alone): 1.00 µg/mL; MIC ([6]; alone): 8.00 µg/mL; MIC ([7]; alone): 4.00 µg/mL; MIC ([8]; alone): 16.00 µg/mL; MIC ([9]; alone): 0.50 µg/mL; MIC ([10]; alone): >32 µg/mL; MIC ([11]; alone): >32 µg/mL; MIC ([12]; alone): >32 µg/mL; MIC ([13]; alone): >32 µg/mL; MIC ([14]; alone): >32 µg/mL; MIC ([15]; alone): >32 µg/mL |
| CC(C)(O/N=C(\C(=O)N[C@@H]1C(=O)N2C(C(=O)[O-])=C(C[n+]3ccc4c(ccn4Cc4ccc(C(=N)N)cc4)c3)CS[C@H]12)c1csc(N)n1)C(=O)O [Ex-1, (6R,7R)-7-{[(2Z)-2-(2-Amino-1,3-thiazol-4-yl)-2-{[(2-carboxypropan-2-yl)oxy]imino}acetyl]-amino}-3-{[1-(4-carbamimidoylbenzyl)-1H-pyrrolo[3,2-c]pyridin-5-ium-5-yl]methyl}-8-oxo-5-thia-1-azabicyclo[4.2.0]oct-2-ene-2-carboxylate] | – | – | – | – | – | – | – | – | – | – | – | – | – | – | – | 4 | 0.12 | 4 | 0.25 | 16 | MIC [7, 19]: 8 µg/mL; MIC [8, 19]: 32 µg/mL; MIC [9, 20]: 0.5 µg/mL; MIC ([10]; alone, read-out: MIC): 16 µg/mL; MIC [11, 21]: 32 µg/mL (≈ 44.6 µM); MIC [12, 21]: 4 µg/mL (≈ 5.57 µM); MIC [13, 21]: > 32 µg/mL; MIC [14, 21]: > 32 µg/mL; MIC [15, 22]: > 32 µg/mL |
| CC(C)(O/N=C(\C(=O)N[C@@H]1C(=O)N2C(C(=O)[O-])=C(C[n+]3ccc4n3CCN4Cc3ccc(C(=N)N)cc3)CS[C@H]12)c1csc(N)n1)C(=O)O [Example 2, (6R,7R)-7-{[(2Z)-2-(2-Amino-1,3-thiazol-4-yl)-2-{[(2-carboxypropan-2-yl)oxy]imino}acetyl]amino}-3-{[1-(4-carbamimidoylbenzyl)-2,3-dihydro-1H-imidazo[1,2-b]pyrazol-5-ium-5-yl]methyl}-8-oxo-5-thia-1-azabicyclo[4.2.0]oct-2-ene-2-carboxylate] | 2.00 | 4.00 | 0.12 | 0.25 | 0.12 | 0.50 | 0.50 | 1.00 | 0.12 | 8.00 | 2 µg/mL | 0.5 | 4 | 2 | 16 | 4 | 0.12 | 0.5 | 0.25 | 4 | MIC [1, 16]: 2 µg/mL; MIC [7, 19]: 2 µg/mL; MIC [8, 19]: 8 µg/mL; MIC [9, 20]: 0.5 µg/mL; MIC ([10]; alone, read-out: MIC): 32 µg/mL; MIC [11, 21]: 32 µg/mL (≈ 45.1 µM); MIC [12, 21]: 4 µg/mL (≈ 5.64 µM); MIC [13, 21]: > 32 µg/mL; MIC [14, 21]: > 32 µg/mL; MIC [15, 22]: > 32 µg/mL |
| CC(C)(O/N=C(\C(=O)N[C@@H]1C(=O)N2C(C(=O)[O-])=C(C[n+]3ccc4c(ccn4Cc4cc(C(=N)N)cs4)c3)CS[C@H]12)c1csc(N)n1)C(=O)O [Example 5, (6R,7R)-7-{[(2Z)-2-(2-Amino-1,3-thiazol-4-yl)-2-{[(2-carboxypropan-2-yl)oxy]imino}acetyl]amino}-3-({1-[(4-carbamimidoylthiophen-2-yl)methyl]-1H-pyrrolo[3,2-c]pyridin-5-ium-5-yl}methyl)-8-oxo-5-thia-1-azabicyclo[4.2.0]oct-2-ene-2-carboxylate] | 2.00 | 4.00 | ≤0.06 | 0.25 | 0.12 | 0.25 | 0.25 | 1.00 | 0.12 | 4.00 | .5 µg/mL | 0.25 | 4 | 2 | 8 | 4 | ≤ 0.06 | 8 | 0.5 | 8 | MIC [1, 16]: 2 µg/mL; MIC [7, 19]: 8 µg/mL; MIC [8, 19]: 32 µg/mL; MIC [9, 20]: 0.5 µg/mL; MIC ([10]; alone, read-out: MIC): 16 µg/mL; MIC [11, 21]: 8 µg/mL (≈ 11.1 µM); MIC [12, 21]: 2 µg/mL (≈ 2.76 µM); MIC [13, 21]: > 32 µg/mL; MIC [14, 21]: > 32 µg/mL; MIC [15, 22]: 32 µg/mL (≈ 44.2 µM) |
| CC(C)(O/N=C(\C(=O)N[C@@H]1C(=O)N2C(C(=O)[O-])=C(C[n+]3ccc4c(ccn4Cc4cc(C(=N)N)co4)c3)CS[C@H]12)c1csc(N)n1)C(=O)O [Example 6, (6R,7R)-7-{[(2Z)-2-(2-Amino-1,3-thiazol-4-yl)-2-{[(2-carboxypropan-2-yl)oxy]imino}acetyl]amino}-3-({1-[(4-carbamimidoylfuran-2-yl)methyl]-1H-pyrrolo[3,2-c]pyridin-5-ium-5-yl}methyl)-8-oxo-5-thia-1-azabicyclo[4.2.0]oct-2-ene-2-carboxylate] | 4.00 | 8.00 | ≤0.06 | 0.50 | ≤0.06 | 0.25 | 0.50 | 1.00 | ≤0.06 | 8.00 | 1 µg/mL | 0.5 | 4 | 2 | 8 | 8 | ≤ 0.06 | 8 | 0.12 | 4 | MIC [1, 16]: 4 µg/mL; MIC [7, 19]: 4 µg/mL; MIC [8, 19]: 8 µg/mL; MIC [9, 20]: 0.5 µg/mL; MIC ([10]; alone, read-out: MIC): 16 µg/mL; MIC [11, 21]: 16 µg/mL (≈ 22.6 µM); MIC [12, 21]: 4 µg/mL (≈ 5.65 µM); MIC [13, 21]: > 32 µg/mL; MIC [14, 21]: > 32 µg/mL; MIC [15, 22]: 32 µg/mL (≈ 45.2 µM) |
